Measurements: US8222297B2, “Aniline or phenol mustards linked to DNA-affinic molecules or water-soluble aromatic rings and their use as cancer therapeutic agents” (Academia Sinica, priority 2007, dated 2012)
Where two headings read alike, the source gives them in different places.

What was measured:
[1] = tested on: human mammary carcinoma MX-1 xenograft; test: Antitumor therapeutic effect in nude mice bearing MX-1 xenograft; format: in vivo; conditions: for Tumor remission achieved: doses and schedules as in Table 2 (30-150 mg/kg, i.v.); for log cell kill: estimated by Eq. 4 from remission time; for Duration complete remission maintained without relapse: one cycle 5-dose-treatment, 3 out of 3 mice
Method: (§1) Athymic nude mice bearing the nu/nu gene were used for human breast tumor MX-1 xenograft (FIGS. 3 and 4) and human brain glioma U87 GM xenograft (FIG. 5). Nude mice were obtained from National Cancer Institute, Frederick, Md. Male mice 6 weeks old or older weighing 22 g or more were used for experiments with subcutaneous tumor inoculation as described previously.^62 Drug was administrated via the tail vein by iv injection. Tumor volumes were assessed by measuring length×width×height (or width) by using caliper. Vehicle used was 20 μL DMSO in 180 μL saline. All animal studies were conducted in accordance with the guidelines of the U.S. National Institutes of Health Guide for the Care and Use of Animals and the protocol approved by the Institutional Animal Care and Use Committee.
(§2) Animals. Athymic nude mice bearing the nu/nu gene were obtained from NCI, Frederick, Md. and used for all human tumor xenografts. Male nude mice 6 weeks or older weighing 20-24 g or more were used. Compounds were administered via the tail vein for i.v. injection or infusion as described previously.^59 A typical formulation for chemotherapeutic studies for each drug was dissolved in DSMO to make a 25 mg/ml fresh solution, 0.4 ml of this solution was mixed with 0.3 ml of Tween 80, plus 1.3 ml to make 2 ml of 5 mg/ml solution. Bolus injection volume was 0.1-0.2 ml per mouse. Tumor volume was assessed by measuring length×width×height (or width) by using a caliper. For tumor-bearing nude mice during the course of the experiment, the body weight refers to total weight minus the weight of the tumor. All animal studies were conducted in accordance with the guidelines for the National Institute of Health Guide for the Care and Use of Animals and the protocol approved by the Institutional Animal Care and Use Committee.
The therapeutic effects of a drug against human tumor xenografts in nude mice, under the optimal therapeutic conditions but without any lethality due to drug toxicity, the following degrees of therapeutic effects are defined and calculated by the following formula:
[formula] • where T0 is the initial tumor size (in mm^3) at beginning of drug treatment; • Tc is tumor size of untreated control group on a given date; and • Tx is tumor size of the drug treated group on a given date.
[formula] • Where T0 and Tx are as specified as above. • Tumor disappearance (complete remission or CR) is defined by the effect where [Tx=0] for a period of time (in days) for a proportion of animals (NCR/N), where N is the total number of animals in the group, and NCR is the number of mice in the group that achieved CR. • Tumor relapse is quantitatively calculated by [The Day tumor relapsed(Drelp)−The Day CR achieved(DCR)] (Eq. 3) • for a proportion of animals (Nrelp/N) where N is the total number of animals in the group, and Nrelp is the number of the mice in the group that relapsed. • The log cell kill (LCK) of the tumor tissue after a given chemotherapy that reached CR is estimated by: LCK=log [2^(Tumor remission in days/Tumor doubling time in days)] (Eq. 4)

[2] = tested on: CCRF-CEM human lymphoblastic leukemia cells; test: In vitro cytotoxicity, XTT assay
[3] = tested on: Human mammary carcinoma (MX-1) tumor cells; test: In vitro cytotoxicity, SRB assay
CCRF-CEM/Taxol = test: In vitro cytotoxicity, XTT assay, taxol-resistant subline; conditions: for fold of cross-resistant, CCRF-CEM/Taxol vs IC50 of parent cell line: number in brackets; for IC50: Homo sapiens, CCRF-CEM, 72 h, read-out: IC50 CCRF-CEM/Taxol, XTT assay, 72-hr incubation
[4] = tested on: Human colon carcinoma HCT-116 cells; test: In vitro cytotoxicity, SRB assay
MX-1 cells = test: Inhibition of biosynthesis of DNA, RNA and protein (tracer incorporation); format: cell-based, human; conditions: for degrees of inhibiting biosynthesis of DNA and RNA, maximized: [3H]thymidine / [3H]adenosine incorporation; for persistence of inhibition of biosynthesis: printed 'over 6-24 hrs'
Method: [^3H]Thymidine (1 uCi), [^3H]adenosine (1 μCi) and [^3H]leucine (2 μCi) were used as the tracers for incorporation into DNA, RNA and protein, respectively. […] Incubation was terminated at each time points as indicated. For details of the method see Chou et al. Cancer Research 43: 3074-3079, 1983. […] The half-maximal inhibition was reached within 15-30 min and persisted for over 6-24 hrs.

[5] = tested on: human glioma U87 GM s.c. xenograft; test: Therapeutic effect in nude mice bearing U87 glioma xenograft; format: in vivo
Method: as §1
The therapeutic effects of N-mustard compounds, BO-1049, 1051 and 1055, against human glioma U87 GM s.c. xenograft in nude mice were given in FIG. 5, A and B. U87 glioma is known to be refractory tumor that can not be effectively treated with cell-cycle specific anti-tumor drugs such as taxol, epothilones, or arabinosylcytosine. However, cell-cycle non-specific drugs such as alkylating agent, cyclophosphamide or BCNU, yields better therapeutic results. […] However, upon 6 days of recession of treatment with BO-1049 or BO-1055, the tumor began to regrow.
as §2

[6] = Homo sapiens, CCRF-CEM, 72 h, read-out: IC50 CCRF-CEM, XTT assay, 72-hr incubation
[7] = Homo sapiens, 72 h, read-out: IC50 MX-1, SRB assay, 72-hr incubation
[8] = Homo sapiens, HCT-116, 72 h, read-out: IC50 HCT-116, SRB assay, 72-hr incubation
[9] = read-out: IC50 CCRF-CEM, XTT assay, 72-hr incubation

SMILES: Cc1cccc2c(Nc3cc(CO)cc(NC(=O)Nc4ccc(N(CCCl)CCCl)cc4)c3)c3ccccc3nc12 [BO-1050, 1-{4-[bis(2-chloroethyl)amino]phenyl}-3-[3-hydroxymethyl-5-(4-methylacridin-9-ylamino)phenyl]urea]
- Tumor remission achieved [1]: CR in parts of the mice
- log cell kill [1]: > 4.1
- Duration complete remission maintained without relapse [1]: over 70 days
- IC50 [2, 6]: 30 nM
- IC50 [3, 7]: 128 nM
- fold of cross-resistant, CCRF-CEM/Taxol vs IC50 of parent cell line (CCRF-CEM/Taxol): 12.8 x

SMILES: CC(=O)O[C@H]1C(=O)[C@@]2(C)[C@H]([C@H](OC(=O)c3ccccc3)[C@]3(O)C[C@H](OC(=O)[C@H](O)[C@@H](NC(=O)c4ccccc4)c4ccccc4)C(C)=C1C3(C)C)[C@]1(OC(C)=O)CO[C@@H]1C[C@@H]2O [Taxol, reference compound]
- IC50 [2, 6]: 1.3 ± 0.1 nM
- IC50 [3, 7]: 35 ± 14 nM
- IC50 [4, 8]: 1.3 ± 0.2 nM
- fold of cross-resistant, CCRF-CEM/Taxol vs IC50 of parent cell line (CCRF-CEM/Taxol): 330 x

SMILES: Cc1ccc(NC(=O)Nc2ccc(N(CCCl)CCCl)cc2)cc1Nc1c2cccc(C)c2nc2c(C(=O)NCCN(C)C)cccc12 [BO-1053, 9-[5-(3-{4-[Bis(2-chloroethyl)amino]phenyl}ureido)-2-methylphenylamino]-5-methylacridine-4-carboxylic acid (2-dimethylaminoethyl)amide]
- Remark (tolerability of dose) ([1]; 70 mg/kg, Q2D × 5, i.v.): Too high dose
- Tumor remission achieved [1]: complete tumor remission
- IC50 [2, 9]: 12 nM
- fold of cross-resistant, CCRF-CEM/Taxol vs IC50 of parent cell line (CCRF-CEM/Taxol): 15.3 x

SMILES: CC[C@]1(O)C[C@@H]2CN(CCc3c([nH]c4ccccc34)[C@@](C(=O)OC)(c3cc4c(cc3OC)N(C)[C@H]3[C@@](O)(C(=O)OC)[C@H](OC(C)=O)[C@]5(CC)C=CCN6CC[C@]43[C@@H]65)C2)C1 [Vinblastine, reference compound]
- IC50 [2, 6]: 0.73 ± 0.09 nM
- IC50 [3, 7]: 2.9 ± 0.5 nM
- IC50 [4, 8]: 1.8 ± 0.4 nM
- fold of cross-resistant, CCRF-CEM/Taxol vs IC50 of parent cell line (CCRF-CEM/Taxol): 106.2 x

SMILES: CCOC(=O)Nc1cc(COC(=O)Oc2ccc(N(CCCl)CCCl)cc2)cc(Nc2c3ccccc3nc3ccccc23)c1 [BO-1065, Carbonic acid 3-(acridin-9-ylamino)-5-ethoxycarbonylaminobenzyl ester 4-[bis(2-chloroethyl)amino]phenyl ester]
- Remark (tolerability of dose) ([1]; 100 mg/kg, QD × 3, i.v.): Too high dose

SMILES: Cc1cccc2c(Nc3cc(CO)cc(NC(=O)Oc4ccc(N(CCCl)CCCl)cc4)c3)c3ccccc3nc12 [BO-1063, [3-Hydroxymethyl-5-(4-methylacridin-9-ylamino)phenyl]carbamic acid 4-[bis(2-chloroethyl)amino]phenyl ester]
- Remark (tolerability of dose) ([1]; 100 mg/kg, QD × 3, i.v.): Too high dose
- IC50 [2, 6]: 75 nM
- IC50 (CCRF-CEM/Taxol): 81 nM
- fold of cross-resistant, CCRF-CEM/Taxol vs IC50 of parent cell line (CCRF-CEM/Taxol): 1.1 x

SMILES: CCOC(=O)Nc1cc(COC(=O)Nc2ccc(N(CCCl)CCCl)cc2)cc(Nc2c3ccccc3nc3ccccc23)c1 [BO-1054, (3-(Acridin-9-ylamino)-5-{4-[bis(2-chloroethyl)amino]phenylcarbamoyloxymethyl}-phenyl)carbamic acid ethyl ester]
- IC50 [2, 9]: 84 nM
- IC50 ([3]; read-out: IC50 MX-1, SRB assay, 72-hr incubation): 605 nM
- IC50 ([4]; read-out: IC50 HCT-116, SRB assay, 72-hr incubation): 757 nM

SMILES: Cc1ccc(Nc2c3ccccc3nc3c(C)cccc23)cc1NC(=O)Oc1ccc(N(CCCl)CCCl)cc1 [BO-1064, [2-Methyl-5-(4-methylacridin-9-ylamino)phenyl]carbamic acid 4-[bis(2-chloro-ethyl)amino]phenyl ester]
- Tumor remission achieved [1]: complete tumor remission
- IC50 [2, 6]: 116 nM
- fold of cross-resistant, CCRF-CEM/Taxol vs IC50 of parent cell line (CCRF-CEM/Taxol): 1.4 x

SMILES: O=C(Nc1cc(CO)cc(Nc2c3ccccc3nc3ccccc23)c1)Oc1ccc(N(CCCl)CCCl)cc1 [BO-1062, [3-(Acridin-9-ylamino)-5-hydroxymethylphenyl]carbamic acid 4-[bis(2-chloro-ethyl)amino]phenyl ester]
- Tumor remission achieved [1]: complete tumor remission
- IC50 [2, 6]: 57 nM
- IC50 (CCRF-CEM/Taxol): 112 nM
- fold of cross-resistant, CCRF-CEM/Taxol vs IC50 of parent cell line (CCRF-CEM/Taxol): 2.0 x

SMILES: Cc1cc(NC(=O)Nc2ccc(N(CCCl)CCCl)cc2)c2ccccc2n1 [BO-1038, 1-{4-[Bis(2-chloroethyl)amino]phenyl}-3-(2-methyl-quinolin-4-yl)urea]
- time to half-maximal inhibition of biosynthesis (MX-1 cells; 10 μM): 15 to 30 min
- degrees of inhibiting biosynthesis of DNA and RNA, maximized (MX-1 cells; 10 μM): 50-80%
- persistence of inhibition of biosynthesis (MX-1 cells; 10 μM): 6 to 24 h
- Tumor remission achieved [1]: complete tumor remission
- log cell kill [1]: > 4.1
- Duration complete remission maintained without relapse [1]: over 70 days
- IC50 [4, 8]: 1240 nM
- fold of cross-resistant, CCRF-CEM/Taxol vs IC50 of parent cell line (CCRF-CEM/Taxol): 2.2 x

SMILES: COc1cc(NC(=O)Oc2ccc(N(CCCl)CCCl)cc2)cc(Nc2c3ccccc3nc3ccccc23)c1 [BO-1066, [3-(Acridin-9-ylamino)-5-methoxyphenyl]carbamic acid 4-[bis(2-chloroethyl)-amino]phenyl ester]
- Tumor remission achieved [1]: complete tumor remission
- fold of cross-resistant, CCRF-CEM/Taxol vs IC50 of parent cell line (CCRF-CEM/Taxol): 1.5 x

SMILES: Cc1ccc(Nc2c3ccccc3nc3c(C)cccc23)cc1NC(=O)Nc1ccc(N(CCCl)CCCl)cc1 [BO-1051]
- delay in reaching maximal effect on DNA and RNA biosynthesis (MX-1 cells; 10 μM): about 1 hr
- time to half-maximal inhibition of biosynthesis (MX-1 cells; 10 μM): 15 to 30 min
- degrees of inhibiting biosynthesis of DNA and RNA, maximized (MX-1 cells; 10 μM): 50-80%
- persistence of inhibition of biosynthesis (MX-1 cells; 10 μM): 6 to 24 h
- inhibition at 10 µM (MX-1 cells; Homo sapiens, MX1, 0.5 h, after initial activation within the first 30 min, read-out: protein synthesis: moderate inhibition following initial activation): ~20%
- Tumor remission achieved [1]: complete tumor remission
- log cell kill [1]: > 4.1
- Duration complete remission maintained without relapse [1]: over 70 days
- tumor-growth suppression ([5]; 100 mg/kg, Q2D×5, i.v.-injection, n=3): complete tumor-growth suppression
- tumor size as % of original tumor size ([5]; 100 mg/kg, Q2D×5, n=3, one cycle, observed 10 and 12 days after last dose on Day 16): 18%
- therapeutic effect compared with cyclophosphamide ([5]; BO-1049 150, BO-1051 100, BO-1055 30 mg/kg vs cyclophosphamide 80 mg/kg, all Q2D×5, parallel study): superior therapeutic effects than cyclophosphamide
- IC50 [2, 6]: 74 nM
- IC50 [3, 7]: 174 nM

SMILES: O=C(Nc1ccc(N(CCCl)CCCl)cc1)Nc1c2ccccc2nc2ccccc12 [BO-1034, 1-Acridin-9-yl-3{4-[bis(2-chloroethyl)amino]phenyl}urea]
- IC50 [2, 6]: 198 nM
- IC50 (CCRF-CEM/Taxol): 418 nM
- fold of cross-resistant, CCRF-CEM/Taxol vs IC50 of parent cell line (CCRF-CEM/Taxol): 2.1 x

SMILES: O=C(Nc1ccc(N(CCCl)CCCl)cc1)Nc1cc(CO)cc(Nc2c3ccccc3nc3ccccc23)c1 [BO-1037, 1-[3-(Acridin-9-ylamino)-5-hydroxymethylphenyl]-3-{4-[bis(2-chloroethyl)amino]phenyl}-urea]
- Tumor remission achieved [1]: CR in parts of the mice
- IC50 [2, 6]: 54.5 nM
